From PubChem BioAssay (NCI)
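Tested at 5 concentrations; 48 h exposure; 96-well plates; endpoints linearly interpolated, else capped at highest concentration. The concentration for full growth arrest is given as TGI.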 Where a SMILES comes first, the peptide text is derived from it. [ ]: non-standard residue; d: D form. Phe(4-NO2) = N[CH](Cc1ccc([N+](=O)[O-])cc1)C(=O)O

What was measured:
Experiment in all cases: NCI-60 cell line screen, 48 h
BT-549 breast = system: BT-549 breast
DMS 114 small cell lung = system: DMS 114 small cell lung
LXFL 529 NSCLC = system: LXFL 529 NSCLC
HOP-18 NSCLC = system: HOP-18 NSCLC
XF 498 CNS = system: XF 498 CNS
DLD-1 colon = system: DLD-1 colon
KM20L2 colon = system: KM20L2 colon
M19-MEL melanoma = system: M19-MEL melanoma
RXF-631 renal = system: RXF-631 renal

Row | Structure (SMILES) | TGI (BT-549 breast) | TGI (DMS 114 small cell lung) | TGI (LXFL 529 NSCLC) | TGI (DLD-1 colon) | TGI (KM20L2 colon) | TGI (M19-MEL melanoma) | other results
1 | O=C(NNC1=NCCCCN1)Nc1ccc(Cl)cc1 | > 100 µM | – | – | – | – | – | –
2 | CC1=NNC(=O)C1C1CC(c2c[nH]c3ccccc23)=NN(C(N)=O)C1=O (stereo not drawn) | > 100 µM | – | – | – | – | – | –
3 | Cc1ccc(N=NC(=Nc2ccc(Cl)cc2)c2ccc(N(CCC#N)CCC#N)cc2)cc1 | > 100 µM | – | – | – | – | – | –
4 | CCN(CC)CCN(C(=Nc1ccccc1)N1CCCCC1)c1ccccc1 | 47 µM | – | – | – | – | – | –
5 | C=CCN1COc2c(cc3c4c(cccc24)C(=O)O3)C1 | – | 35 µM | 35.1 µM | 66.2 µM | > 100 µM | 37.4 µM | TGI (HOP-18 NSCLC): > 100 µM; TGI (XF 498 CNS): 37.8 µM
6 | CC(=O)C1Cn2c(=O)c3cc4ccccc4cc3c(=O)n2C=C1C (stereo not drawn) | – | > 100 µM | > 100 µM | > 100 µM | > 100 µM | > 100 µM | TGI (RXF-631 renal): > 100 µM; TGI (XF 498 CNS): > 100 µM
7 | COc1cc2oc(-c3ccc4c(c3)OCO4)c(OC)c(=O)c2c(OC)c1O | > 100 µM | – | – | – | – | – | –
8 | CCOP12(OCC)NC(=O)OC1(C(F)(F)F)c1ccccc1O2 (stereo not drawn) | – | > 100 µM | > 100 µM | > 100 µM | – | > 100 µM | TGI (HOP-18 NSCLC): > 100 µM
9 | CCCN(CCC)C(=S)N/N=C/c1ccccn1 | 22.5 µM | – | – | – | – | – | –
10 | O=C1C=CC2(C=C1)CCNC1=C2C(=O)c2ccccc2C1=O | – | > 100 µM | > 100 µM | > 100 µM | > 100 µM | > 100 µM | TGI (RXF-631 renal): > 100 µM; TGI (XF 498 CNS): > 100 µM
11 | COc1ccc2[nH]cc(C(=O)C(=O)NC34CC5CC(CC(C5)C3)C4)c2c1 | > 100 µM | – | – | – | – | – | –
12 | C[Si](C)(N[Si](C)(C)OCCc1ccccc1)OCCc1ccccc1 | > 100 µM | – | – | – | – | – | –
13 | O[C@H]1[C@H](O)[C@@H](O)[C@@]2(O)CC[C@@H]1N2 | > 100 µM | – | – | – | – | – | –
14 | O=C1NC(=O)C(C(=O)C(=O)Nc2ccc(Cl)cc2Cl)C(=O)N1 | – | > 100 µM | > 100 µM | > 100 µM | > 100 µM | > 100 µM | TGI (RXF-631 renal): > 100 µM
15 | O=c1c2ccccc2nc(/C=C(\O)c2ccncc2)n1-c1ccc(Cl)cc1 | – | > 100 µM | > 100 µM | > 100 µM | > 100 µM | > 100 µM | TGI (XF 498 CNS): 66.4 µM
16 | CCN(CC)C1CCC(C2c3cc4c(cc3OC(N3CCOCC3)C2C)OCO4)CC1 (stereo not drawn) | 84.1 µM | – | – | – | – | – | –
17 | Cc1nn2c(nc1=O)sc1ccc3ccccc3c12 | – | > 100 µM | > 100 µM | > 100 µM | > 100 µM | > 100 µM | TGI (HOP-18 NSCLC): > 100 µM; TGI (XF 498 CNS): > 100 µM

Row | Structure (SMILES) | TGI (BT-549 breast) | TGI (DMS 114 small cell lung) | TGI (LXFL 529 NSCLC) | TGI (DLD-1 colon) | TGI (KM20L2 colon) | TGI (M19-MEL melanoma) | other results
18 | CC(=O)OCC1OC(n2c3c(cc(C#N)c2=S)CCC3)C(OC(C)=O)C(OC(C)=O)C1OC(C)=O (stereo not drawn) | > 100 µM | – | – | – | – | – | –
19 | CC(NC(=O)C(Cc1ccc([N+](=O)[O-])cc1)NC(=O)C(N)CCCCN)C(=O)NC(Cc1ccc([N+](=O)[O-])cc1)C(N)=O (stereo not drawn) (H-K[Phe(4-NO2)]A[Phe(4-NO2)]-NH2; configuration not given here) | > 54 µM | – | – | – | – | – | –
20 | O=C(O)c1nc2ccc(C(F)(F)F)cc2nc1NCc1ccc(Cl)c(Cl)c1 | 33.1 µM | – | – | – | – | – | –
21 | CN(C)CCNC(=O)c1cccc2c(NC(CS)C(=O)O)c3ccccc3[n+](C)c12 (stereo not drawn) | 98.2 µM | – | – | – | – | – | –
22 | O=C(O)COc1ccc(C(=O)/C(SS/C(C(=O)c2ccc(OCC(=O)O)c(Cl)c2Cl)=C2\C=C(c3ccc(Cl)cc3)SS2)=C2/C=C(c3ccc(Cl)cc3)SS2)c(Cl)c1Cl | – | – | 14.4 µM | 24.6 µM | 54.5 µM | 20.6 µM | TGI (RXF-631 renal): > 100 µM; TGI (HOP-18 NSCLC): 23 µM
23 | Cc1ccc(C(c2c(O)c3ccccc3n(-c3ccccc3)c2=O)c2c(O)c3ccccc3n(-c3ccccc3)c2=O)cc1 | – | > 100 µM | > 100 µM | > 100 µM | > 100 µM | > 100 µM | TGI (HOP-18 NSCLC): > 100 µM; TGI (XF 498 CNS): > 100 µM
24 | N#Cc1ccc(N2CCOCC2)cc1 | > 100 µM | – | – | – | – | – | –
25 | COC(=O)C1=C(OC(=O)/C(=C/c2ccccc2)c2ccc(Cl)cc2)C(C(=O)OC)[C@@]2(O)[C@@H](C(=O)OC)[C@H](C)C[C@@H]1[C@@H]2C(=O)OC (stereo partly drawn) | > 100 µM | – | – | – | – | – | –
26 | O=C(/C=C/c1ccc(C(F)(F)F)cc1)c1c([O-])on[n+]1-c1ccccc1 | 3.04 µM | – | – | – | – | – | –
27 | Cc1ccc(-c2n[nH]c(=O)n2NC(=O)c2ccccc2C(=O)O)cc1 | > 100 µM | – | – | – | – | – | –
28 | O=c1cc(CSc2c(-c3ccccc3)c(=O)n(-c3ccccc3)c(=S)n2-c2ccccc2)[nH]c(=O)[nH]1 | > 100 µM | – | – | – | – | – | –
29 | C(=N\Nc1ccccc1)/c1nc2ccccc2nc1/C=N/Nc1ccccc1 | – | – | 23 µM | 40.9 µM | 26.5 µM | 41.1 µM | TGI (RXF-631 renal): 27.6 µM
30 | Cc1occc1C(=S)Nc1ccc(Cl)c(/C=N/OC(C)(C)C)c1 | 32.2 µM | – | – | – | – | – | –
31 | COc1cc(O)c2c(c1)O[C@@H]1OCC[C@H]21 | – | > 100 µM | > 100 µM | > 100 µM | > 100 µM | – | TGI (HOP-18 NSCLC): > 100 µM; TGI (XF 498 CNS): > 100 µM
32 | O=C(O)C(C(=O)O)P(=S)(S)c1ccccc1 (stereo not drawn) | > 100 µM | > 100 µM | > 100 µM | > 100 µM | > 100 µM | > 100 µM | TGI (RXF-631 renal): > 100 µM; TGI (XF 498 CNS): > 100 µM
33 | O=C(Nc1cccc(C(F)(F)F)c1)C(=O)C1NC(=S)NC1=O (stereo not drawn) | – | > 100 µM | > 100 µM | > 100 µM | > 100 µM | > 100 µM | TGI (HOP-18 NSCLC): > 100 µM
